Consider 10 molecules from patent publication US20070197525A1, “Novel tetracyclic tetrahydrofuran derivatives” (priority 2004, published 2007).

Data set [1] concerns the target T1, human dopamine D2L receptor (Homo sapiens, UniProt P14416).
T1 construct: expressed in transfected cells; host or cells: CHO cells (frozen membranes)
Briefly: In vitro assay for D2 receptor binding. The conditions noted are these: for IC50: membranes of human D2L-transfected CHO cells, [3H]Spiperone radioligand, read-out: D2 (pIC50) (converted); for D2/NET: ratio of D2 pIC50 to NET-inhibition pIC50. As for the experimental part:
Frozen membranes of human dopamine D2L receptor-transfected CHO cells were thawed, briefly homogenised using an Ultra-Turrax T25 homogeniser and diluted in Tris-HCl assay buffer containing NaCl, CaCl2, MgCl2, KCl (50, 120, 2, 1, and 5 mM respectively, adjusted to pH 7.7 with HCl) to an appropriate protein concentration optimised for specific and non-specific binding. Radioligand [^3H]Spiperone (NEN, specific activity ˜70 Ci/mmol) was diluted in assay buffer at a concentration of 2 nmol/L. Prepared radioligand (50 μl), along with 50 μl of either the 10% DMSO control, Butaclamol (10^−6 mol/l final concentration), or compound of interest, was then incubated (30 min, 37° C.) with 400 μl of the prepared membrane solution. Membrane-bound activity was filtered through a Packard Filtermate harvester onto GF/B Unifilterplates and washed with ice-cold Tris-HCl buffer (50 mM; pH 7.7; 6×0.5 ml). Filters were allowed to dry before adding scintillation fluid and counting in a Topcount scintillation counter. Percentage specific bound and competition binding curves were calculated using S-Plus software (Insightful).

In data set [2] the target is T2, human cloned 5-HT2A receptor (Homo sapiens, UniProt P28223).
T2 construct: expressed in transfected cells; host or cells: L929 cells
Briefly: In vitro binding affinity for 5-HT2A receptor (radioligand binding). As to conditions: human cloned 5-HT2A receptor expressed in L929 cells, [125I]R91150 radioligand; read-out: 5-HT2A (pIC50) (converted). On the procedure: (§1) The interaction of the compounds of Formula (I) with 5-HT2A and 5-HT2C receptors was assessed in in vitro radioligand binding experiments. In general, a low concentration of a radioligand with a high binding affinity for the receptor is incubated with a sample of a tissue preparation enriched in a particular receptor (1 to 5 mg tissue) in a buffered medium (0.2 to 5 ml). During the incubation, the radioligands bind to the receptor. When equilibrium of binding is reached, the receptor bound radioactivity is separated from the non-bound radioactivity, and the receptor bound activity is counted. The interaction of the test compounds with the receptors is assessed in competition binding experiments. Various concentrations of the test compound are added to the incubation mixture containing the tissue preparation and the radioligand. Binding of the radioligand will be inhibited by the test compound in proportion to its binding affinity and its concentration. The affinities of the compounds for the 5-HT2 receptors were measured by means of radioligand binding studies conducted with: (a) human cloned 5-HT2A receptor, expressed in L929 cells using [^125I]R91150 as radioligand and (b) human cloned 5-HT2C receptor, expressed in CHO cells using [^3H]mesulergine as radioligand.

Data set [3] deals with T3, norepinephrine transporter (NET) (Rattus norvegicus, UniProt Q63380).
T3 construct: Cortex from rat brain was collected and homogenised; from tissue; host or cells: rat brain cortex membranes
Description: In vitro assay for NET inhibition (radioligand binding, rat brain cortex). The conditions noted are these: rat brain cortex membranes, [3H]Nixosetine radioligand; read-out: NET-inhibition (pIC50) (converted). As for the experimental part:
Cortex from rat brain was collected and homogenised using an Ultra-Turrax T25 and a Dual homogeniser in ice-cold homogenising buffer containing Tris, NaCl and KCl (50 mM, 120 mM and 5 mM, respectively, pH 7.4) prior to dilution to an appropriate protein concentration optimised for specific and non-specific binding. […] Membrane-bound activity was detected by filtration through a Packard Filtermate harvester onto GF/B Unifilterplates, washed with ice-cold Tris-HCl buffer, containing NaCl and KCl (50 mM, 120 mM and 4 mM; pH 7.4; 6×0.5 ml). Filters were allowed to dry for 24 h before adding scintillation fluid. Scintillation fluid was allowed to saturate filters for 24 h before counting in a Topcount scintillation counter. Percentage specific bound and competition binding curves were calculated using S-Plus software (Insightful).

The target in data set [4] is T4, human cloned 5-HT2C receptor (Homo sapiens, UniProt P28335).
T4 construct: expressed in transfected cells; host or cells: CHO cells
T4 sequence (P28335 33-458): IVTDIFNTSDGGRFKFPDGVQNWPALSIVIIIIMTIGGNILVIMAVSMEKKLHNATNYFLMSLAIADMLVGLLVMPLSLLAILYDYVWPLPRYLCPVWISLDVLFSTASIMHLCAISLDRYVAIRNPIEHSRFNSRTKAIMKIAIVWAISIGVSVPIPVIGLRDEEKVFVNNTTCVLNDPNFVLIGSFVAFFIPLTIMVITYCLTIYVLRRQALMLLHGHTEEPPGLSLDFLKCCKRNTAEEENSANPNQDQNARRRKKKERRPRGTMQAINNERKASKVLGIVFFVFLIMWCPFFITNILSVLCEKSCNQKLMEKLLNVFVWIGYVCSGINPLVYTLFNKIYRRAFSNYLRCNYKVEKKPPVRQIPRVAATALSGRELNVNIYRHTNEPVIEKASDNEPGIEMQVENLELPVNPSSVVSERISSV
Briefly: In vitro binding affinity for 5-HT2C receptor (radioligand binding). As to conditions: human cloned 5-HT2C receptor expressed in CHO cells, [3H]mesulergine radioligand; read-out: 5-HT2C (pIC50) (converted). On the procedure:
as §1

Data set [5] in a line: Metabolic stability assay using human liver microsomes. It is filed as in vitro ADME. The conditions noted are these: 5.0 μM test compound, 15 min incubation, LC-MS. On the procedure: Compounds according to the invention were tested for metabolic stability in the following assay using human liver microsomes in comparison with prior art compound A, referred to above.
Sub-cellular tissue preparations are made by centrifugal separation after mechanical homogenization of tissue. Tissue is rinsed in ice cold 0.1 M Tris-HCl (pH 7.4) buffer to wash excess blood. Tissue is then blotted dry, weighed and chopped coarsely using surgical scissors. The tissue pieces are homogenized in 3 volumes of ice cold 0.1 M phosphate buffer (pH 7.4) for 7×10 sec. The vessel is kept in/on ice during the homogenization process. Tissue homogenates are centrifuged at 9000×g for 20 minutes at 4° C. The resulting supernatant can be stored at −80° C. and is designated ‘S9’.
The S9-fraction may be centrifuged at 100.000×g for 60 minutes (4° C.). The resulting supernatant is aspirated, aliquoted and designated ‘cytosol’. The pellet is re-suspended in 0.1 M phosphate buffer (pH 7.4) in a final volume of 1 mL per 0.5 g original tissue weight and designated ‘microsomes’.
The incubation is carried out in the following system:
• The reaction is started by the addition of 0.8 mM NADP and incubated for 15 min. • Total assay volume is 250 microliters. • The reaction is stopped by the addition of 2 volumes of DMSO (or acetonitrile). • The samples are centrifuged (10 min, 900×g) and supernatant stored at room temperature (when stopped with DMSO; no longer than 24 h) or −20° C. (when stopped with acetonitrile; no longer than 24 h) before analysis. • The supernatant material is then analysed by LC-MS to determine the extent of metabolism of the test compound in the microsomes

T2 sequence (P28223 whole entry): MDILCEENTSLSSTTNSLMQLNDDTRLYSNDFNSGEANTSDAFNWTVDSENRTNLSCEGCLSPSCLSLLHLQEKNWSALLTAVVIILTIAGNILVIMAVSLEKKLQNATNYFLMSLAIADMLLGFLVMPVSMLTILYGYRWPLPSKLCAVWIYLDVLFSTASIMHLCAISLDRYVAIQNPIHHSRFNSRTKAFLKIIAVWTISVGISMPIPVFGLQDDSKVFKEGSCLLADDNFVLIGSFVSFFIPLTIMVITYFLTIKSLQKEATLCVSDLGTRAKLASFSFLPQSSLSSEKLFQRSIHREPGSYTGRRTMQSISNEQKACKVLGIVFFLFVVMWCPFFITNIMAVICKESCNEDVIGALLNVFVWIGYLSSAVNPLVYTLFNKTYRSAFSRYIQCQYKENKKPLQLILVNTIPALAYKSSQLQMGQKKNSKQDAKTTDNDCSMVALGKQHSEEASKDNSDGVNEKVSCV
T1 sequence (P14416 whole entry): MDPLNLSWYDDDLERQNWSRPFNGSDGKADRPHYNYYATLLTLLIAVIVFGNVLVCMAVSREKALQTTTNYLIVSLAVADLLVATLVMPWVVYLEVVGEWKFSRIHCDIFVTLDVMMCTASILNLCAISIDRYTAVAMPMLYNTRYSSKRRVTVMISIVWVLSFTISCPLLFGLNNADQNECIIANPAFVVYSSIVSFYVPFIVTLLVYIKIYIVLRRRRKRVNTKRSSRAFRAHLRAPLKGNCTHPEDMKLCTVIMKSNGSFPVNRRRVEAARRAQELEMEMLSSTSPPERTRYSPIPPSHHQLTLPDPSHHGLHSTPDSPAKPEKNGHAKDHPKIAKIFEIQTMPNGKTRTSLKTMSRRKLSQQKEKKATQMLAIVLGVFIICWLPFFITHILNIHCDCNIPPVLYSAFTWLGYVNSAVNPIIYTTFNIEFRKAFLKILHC
T3 sequence (Q63380 1-617): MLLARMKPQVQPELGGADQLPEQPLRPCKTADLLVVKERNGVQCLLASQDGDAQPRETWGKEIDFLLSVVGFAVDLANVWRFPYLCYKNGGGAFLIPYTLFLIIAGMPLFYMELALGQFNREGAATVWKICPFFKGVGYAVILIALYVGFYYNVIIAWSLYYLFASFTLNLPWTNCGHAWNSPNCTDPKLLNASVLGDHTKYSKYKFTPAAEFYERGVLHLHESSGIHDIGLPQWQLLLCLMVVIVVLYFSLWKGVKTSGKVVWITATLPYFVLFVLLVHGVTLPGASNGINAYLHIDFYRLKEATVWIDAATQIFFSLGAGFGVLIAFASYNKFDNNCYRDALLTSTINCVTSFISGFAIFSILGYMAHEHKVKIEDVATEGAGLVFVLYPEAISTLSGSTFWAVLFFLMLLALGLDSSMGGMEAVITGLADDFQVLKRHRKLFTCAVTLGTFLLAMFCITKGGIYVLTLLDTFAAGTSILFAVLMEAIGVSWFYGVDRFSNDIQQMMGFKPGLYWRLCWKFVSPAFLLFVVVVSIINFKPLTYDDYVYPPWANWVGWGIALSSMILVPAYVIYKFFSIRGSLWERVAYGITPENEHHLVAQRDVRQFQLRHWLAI

`CNCC1CC2c3ccccc3C(C)c3ccc(F)cc3C2O1` (single isomer, unassigned) [Compound 74]: the IC50 in data set [1] is 631 nM; in data set [2], 12.6 nM; in data set [3], 5.01 nM; in data set [4] it was 3.98 nM. Also, in data set [1], the D2/NET came out at 0.74. For the same molecule, the “% metabolised” value in data set [5] turned out to be 9%.
Consider `C=C1c2ccccc2[C@H]2C[C@H](CN(C)C)O[C@@H]2c2ccccc21` [Compound 25], for which the IC50 is 200 nM in data set [1], 12.6 nM in data set [2], 12.6 nM in data set [3] and 3.98 nM in data set [4]. In data set [1], the D2/NET amounted to 0.85.
Turning to `C=C1c2ccccc2[C@H]2C[C@H](CN(C)C)O[C@@H]2c2cc(F)ccc21` [Compound 26], the “% metabolised” value in data set [5] turned out to be 2.6%.
As for `CNC[C@H]1C[C@@H]2c3ccccc3[C@H](O)c3ccc(F)cc3[C@H]2O1` [Compound 34], the IC50 in data set [1] is greater than 1000 nM; in data set [2], 31.6 nM; in data set [3], 20 nM; in data set [4], 5.01 nM. Besides, the D2/NET in data set [1] is less than 0.77.
On to `CN(C)C[C@H]1C[C@@H]2c3ccccc3[C@](C)(O)c3ccc(F)cc3[C@H]2O1` [Compound 41], for which the IC50 in data set [1] was greater than 1000 nM; in data set [2] it was 31.6 nM; in data set [3], 126 nM; in data set [4], 50.1 nM. In data set [1], the D2/NET is less than 0.87. The “% metabolised” value in data set [5] is recorded as 2.25%.
In the case of `CNC[C@H]1C[C@@H]2c3ccccc3[C@@H](OC(C)C)c3ccc(F)cc3[C@H]2O1` [Compound 63], the IC50 is greater than 10000 nM in data set [1], 316 nM in data set [2], 3980 nM in data set [3] and 100 nM in data set [4]. For the same molecule, the D2/NET in data set [1] is given as less than 0.92.
`C[C@@H]1c2ccccc2[C@H]2C[C@H](CN(C)C)O[C@@H]2c2cc(F)ccc21` [Compound 66]: the IC50 was 316 nM in data set [1], 25.1 nM in data set [2], 31.6 nM in data set [3] and 3.98 nM in data set [4]. In addition, the D2/NET in data set [1] stood at 0.86. In addition, in data set [5], the “% metabolised” value is reported as 11.35%.
On to `NC[C@H]1C[C@@H]2c3ccccc3[C@@H](O)c3ccc(F)cc3[C@H]2O1` [Compound 104], for which the IC50 in data set [1] was 7940 nM; in data set [2], 12.6 nM; in data set [3], 200 nM; in data set [4], 2.51 nM. In data set [1], the D2/NET was 0.60.
With `CCNC[C@H]1C[C@@H]2c3ccccc3[C@H](O)c3ccc(F)cc3[C@H]2O1` [Compound 107], the IC50 in data set [1] was 1580 nM; in data set [2], 20 nM; in data set [3] it was 158 nM; in data set [4], 6.31 nM. For the same molecule, in data set [1], the D2/NET is 0.86.
As to `CCNC[C@H]1C[C@@H]2c3ccccc3[C@@H](OC)c3ccc(F)cc3[C@H]2O1` [Compound 110], the IC50 in data set [1] is greater than 10000 nM; in data set [2], 1260 nM; in data set [3], 10 nM; in data set [4], 398 nM. The D2/NET in data set [1] is given as less than 0.62.
